In PubChem BioAssay (NCI):
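GI50: concentration for 50% inhibition of growth. TGI marks complete inhibition of growth.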

What was measured:
Test in all cases: NCI anticancer screen, dose series, 384-well format
[1] = test system: K-562 leukemia
[2] = test system: HT29 colon
[3] = test system: PC-3 prostate
[4] = test system: NCI/ADR-RES ovarian
[5] = test system: NCI-H23 lung
[6] = test system: OVCAR-3 ovarian
[7] = test system: OVCAR-5 ovarian
[8] = test system: SW-620 colon
[9] = test system: MOLT-4 leukemia
[10] = test system: HCT-15 colon
[11] = test system: SK-MEL-5 melanoma
[12] = test system: SN12C renal
[13] = test system: U251 glioblastoma
[14] = test system: CCRF-CEM leukemia
[15] = test system: UACC-62 melanoma
[16] = test system: A549 NSCLC
[17] = test system: ACHN renal
[18] = test system: SF-268 CNS
[19] = test system: RPMI-8226 leukemia
[20] = test system: BT-549 breast
[21] = test system: NCI-H460 NSCLC
[22] = test system: SNB-19 CNS
[23] = test system: UO-31 renal
[24] = test system: NCI-H322M lung
[25] = test system: OVCAR-4 ovarian
[26] = test system: MALME-3M melanoma
[27] = test system: IGROV1 ovarian
[28] = test system: SR leukemia
[29] = test system: RXF 393 renal
[30] = test system: LOX IMVI melanoma
[31] = test system: MDA-MB-435 melanoma
[32] = test system: CAKI-1 renal
[33] = test system: SK-OV-3 ovarian
[34] = test system: MDA-MB-468 breast
[35] = test system: MCF7 breast
[36] = test system: NCI-H522 lung
[37] = test system: SK-MEL-2 melanoma
[38] = test system: TK-10 renal
[39] = test system: SK-MEL-28 melanoma
[40] = test system: SF-295 CNS
[41] = test system: OVCAR-8 ovarian
[42] = test system: A498 renal
[43] = test system: COLO 205 colon
[44] = test system: NCI-H226 lung
[45] = test system: T-47D breast
[46] = test system: KM12 colon
[47] = test system: DU-145 prostate
[48] = test system: HCT-116 colon
[49] = test system: M14 melanoma
[50] = test system: HOP-62 NSCLC
[51] = test system: 786-0 renal
[52] = test system: UACC-257 melanoma
[53] = test system: HOP-92 NSCLC
[54] = test system: MDA-MB-231 breast
[55] = test system: HL-60(TB) leukemia
[56] = test system: HCC-2998 colon
[57] = test system: SF-539 CNS

How did the GI50 [1] turn out when Cc1cc2c(C(=O)NC[C@H](C)c3ccccc3)c(O)c(O)cc2c(O)c1-c1c(C)cc2c(C(=O)NC[C@H](C)c3ccccc3)c(O)c(O)cc2c1O was run?
Its GI50 is 0.328 µM.

What about the TGI [1] of the same compound?
The TGI was 1.21 µM.

What about the GI50 [2] of the same compound?
Its GI50 is 1.23 µM.

What about the TGI [2] of the same compound?
The TGI was 3.83 µM.

What about the GI50 [3] of the same compound?
The GI50 was 1.37 µM.

And the TGI [3]?
The TGI was 2.75 µM.

What about the GI50 [4] of the same compound?
The GI50 was 2.15 µM.

What about the TGI [4] of the same compound?
The TGI was 5.33 µM.

What about the GI50 [5] of the same compound?
The GI50 was 0.229 µM.

What about the TGI [5] of the same compound?
The TGI was 0.448 µM.

And the GI50 [6]?
The GI50 was 0.613 µM.

What about the TGI [6] of the same compound?
The TGI was 2.08 µM.

And the GI50 [7]?
Its GI50 is 0.558 µM.

And the TGI [7]?
The TGI was 1.98 µM.

What about the GI50 [8] of the same compound?
Its GI50 is 1.48 µM.

And the TGI [8]?
Its TGI is 3.62 µM.

What about the GI50 [9] of the same compound?
The GI50 was 0.218 µM.

And the TGI [9]?
Its TGI is 0.404 µM.

And the GI50 [10]?
Its GI50 is 0.545 µM.

And the TGI [10]?
Its TGI is 2.88 µM.

And the GI50 [11]?
Its GI50 is 0.378 µM.

And the TGI [11]?
Its TGI is 1.58 µM.

What about the GI50 [12] of the same compound?
The GI50 was 0.837 µM.

And the TGI [12]?
The TGI was 2.3 µM.

What about the GI50 [13] of the same compound?
Its GI50 is 0.281 µM.

And the TGI [13]?
Its TGI is 0.723 µM.

What about the GI50 [14] of the same compound?
Its GI50 is 0.243 µM.

What about the TGI [14] of the same compound?
Its TGI is 0.514 µM.

What about the GI50 [15] of the same compound?
The GI50 was 0.486 µM.

And the TGI [15]?
The TGI was 1.63 µM.

What about the GI50 [16] of the same compound?
The GI50 was 0.348 µM.

And the TGI [16]?
Its TGI is 1.39 µM.

What about the GI50 [17] of the same compound?
Its GI50 is 1.84 µM.

And the TGI [17]?
The TGI was 4.04 µM.

And the GI50 [18]?
The GI50 was 0.523 µM.

And the TGI [18]?
Its TGI is 1.81 µM.

What about the GI50 [19] of the same compound?
Its GI50 is 0.238 µM.

What about the TGI [19] of the same compound?
Its TGI is 0.447 µM.

What about the GI50 [20] of the same compound?
The GI50 was 0.243 µM.

What about the TGI [20] of the same compound?
The TGI was 0.582 µM.

And the GI50 [21]?
Its GI50 is 0.204 µM.

And the TGI [21]?
The TGI was 0.424 µM.

What about the GI50 [22] of the same compound?
The GI50 was 0.413 µM.

And the TGI [22]?
Its TGI is 1.44 µM.

What about the GI50 [23] of the same compound?
Its GI50 is 1.22 µM.

And the TGI [23]?
Its TGI is 2.94 µM.

And the GI50 [24]?
Its GI50 is 1.76 µM.

What about the TGI [24] of the same compound?
The TGI was 8.77 µM.

What about the GI50 [25] of the same compound?
Its GI50 is 0.935 µM.

And the TGI [25]?
Its TGI is 4.46 µM.

And the GI50 [26]?
Its GI50 is 1.59 µM.

And the TGI [26]?
The TGI was 4.43 µM.

And the GI50 [27]?
Its GI50 is 0.495 µM.

And the TGI [27]?
Its TGI is 2.92 µM.

And the GI50 [28]?
The GI50 was 0.196 µM.

What about the TGI [28] of the same compound?
Its TGI is 0.369 µM.

And the GI50 [29]?
The GI50 was 0.201 µM.

What about the TGI [29] of the same compound?
The TGI was 0.625 µM.

What about the GI50 [30] of the same compound?
Its GI50 is 1.74 µM.

What about the TGI [30] of the same compound?
The TGI was 3.27 µM.

What about the GI50 [31] of the same compound?
Its GI50 is 0.54 µM.

And the TGI [31]?
The TGI was 2.7 µM.

What about the GI50 [32] of the same compound?
Its GI50 is 0.657 µM.

And the TGI [32]?
The TGI was 2.5 µM.

What about the GI50 [33] of the same compound?
Its GI50 is 1.5 µM.

And the TGI [33]?
The TGI was 3.9 µM.

What about the GI50 [34] of the same compound?
The GI50 was 0.187 µM.

And the TGI [34]?
Its TGI is 0.374 µM.

What about the GI50 [35] of the same compound?
Its GI50 is 0.309 µM.

And the TGI [35]?
The TGI was 1.18 µM.

What about the GI50 [36] of the same compound?
Its GI50 is 0.207 µM.

What about the TGI [36] of the same compound?
The TGI was 0.396 µM.

What about the GI50 [37] of the same compound?
The GI50 was 0.24 µM.

And the TGI [37]?
Its TGI is 1.03 µM.

What about the GI50 [38] of the same compound?
Its GI50 is 1.28 µM.

What about the TGI [38] of the same compound?
Its TGI is 7.08 µM.

What about the GI50 [39] of the same compound?
Its GI50 is 0.606 µM.

And the TGI [39]?
Its TGI is 2.4 µM.

What about the GI50 [40] of the same compound?
Its GI50 is 0.345 µM.

And the TGI [40]?
Its TGI is 1.12 µM.

What about the GI50 [41] of the same compound?
The GI50 was 1.12 µM.

And the TGI [41]?
The TGI was 2.49 µM.

What about the GI50 [42] of the same compound?
Its GI50 is 0.286 µM.

What about the TGI [42] of the same compound?
The TGI was 0.818 µM.

And the GI50 [43]?
Its GI50 is 1.94 µM.

And the TGI [43]?
The TGI was 4.29 µM.

What about the GI50 [44] of the same compound?
The GI50 was 1.13 µM.

And the TGI [44]?
The TGI was 2.6 µM.

What about the GI50 [45] of the same compound?
The GI50 was 0.382 µM.

What about the TGI [45] of the same compound?
Its TGI is 1.59 µM.

And the GI50 [46]?
Its GI50 is 0.39 µM.

And the TGI [46]?
The TGI was 1.36 µM.

And the GI50 [47]?
Its GI50 is 0.382 µM.

What about the TGI [47] of the same compound?
Its TGI is 1.98 µM.

And the GI50 [48]?
Its GI50 is 0.274 µM.

What about the TGI [48] of the same compound?
Its TGI is 0.685 µM.

What about the GI50 [49] of the same compound?
The GI50 was 0.394 µM.

What about the TGI [49] of the same compound?
Its TGI is 1.36 µM.

And the GI50 [50]?
The GI50 was 0.666 µM.

What about the TGI [50] of the same compound?
The TGI was 2.09 µM.

And the GI50 [51]?
The GI50 was 1.17 µM.

And the TGI [51]?
The TGI was 2.8 µM.

What about the GI50 [52] of the same compound?
The GI50 was 1.61 µM.

And the TGI [52]?
The TGI was 3.57 µM.

And the GI50 [53]?
Its GI50 is 0.461 µM.

What about the TGI [53] of the same compound?
The TGI was 1.56 µM.

And the GI50 [54]?
The GI50 was 0.654 µM.

And the TGI [54]?
The TGI was 2.39 µM.

What about the GI50 [55] of the same compound?
Its GI50 is 0.487 µM.

What about the TGI [55] of the same compound?
The TGI was 1.39 µM.

And the GI50 [56]?
The GI50 was 1.38 µM.

And the TGI [56]?
The TGI was 3.2 µM.

What about the GI50 [57] of the same compound?
The GI50 was 0.233 µM.

What about the TGI [57] of the same compound?
The TGI was 0.579 µM.
